#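 Method: 48-hour compound exposure of cells in 96-well plates, five concentrations, linear interpolation of endpoints. Abbreviation: GI50, concentration required for 50% inhibition of growth. TGI: total growth inhibition.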
# Legend:
# Assay in all cases: NCI tumour cell line growth inhibition, 48 h
# SNB-75 CNS = tested on: SNB-75 CNS
# SK-MEL-5 melanoma = tested on: SK-MEL-5 melanoma
# RXF 393 renal = tested on: RXF 393 renal
# T-47D breast = tested on: T-47D breast
# TK-10 renal = tested on: TK-10 renal
# SW-620 colon = tested on: SW-620 colon
# IGROV1 ovarian = tested on: IGROV1 ovarian
# OVCAR-4 ovarian = tested on: OVCAR-4 ovarian
# OVCAR-8 ovarian = tested on: OVCAR-8 ovarian
# BT-549 breast = tested on: BT-549 breast
# SF-539 CNS = tested on: SF-539 CNS
# 786-0 renal = tested on: 786-0 renal
# M14 melanoma = tested on: M14 melanoma
# CCRF-CEM leukemia = tested on: CCRF-CEM leukemia
# SK-MEL-28 melanoma = tested on: SK-MEL-28 melanoma
# CAKI-1 renal = tested on: CAKI-1 renal
# MDA-MB-231 breast = tested on: MDA-MB-231 breast
# HCC-2998 colon = tested on: HCC-2998 colon
# A549 NSCLC = tested on: A549 NSCLC
# UACC-257 melanoma = tested on: UACC-257 melanoma
# HOP-62 NSCLC = tested on: HOP-62 NSCLC
# MALME-3M melanoma = tested on: MALME-3M melanoma
# KM12 colon = tested on: KM12 colon
# HL-60(TB) leukemia = tested on: HL-60(TB) leukemia
# SF-295 CNS = tested on: SF-295 CNS
# PC-3 prostate = tested on: PC-3 prostate
# MDA-MB-435 = tested on: MDA-MB-435
# NCI-H226 lung = tested on: NCI-H226 lung
# OVCAR-5 ovarian = tested on: OVCAR-5 ovarian
# DU-145 prostate = tested on: DU-145 prostate
# SR leukemia = tested on: SR leukemia
# ACHN renal = tested on: ACHN renal
# K-562 leukemia = tested on: K-562 leukemia
# EKVX NSCLC = tested on: EKVX NSCLC
# HCT-15 colon = tested on: HCT-15 colon
# LOX IMVI melanoma = tested on: LOX IMVI melanoma
# UO-31 renal = tested on: UO-31 renal
# UACC-62 melanoma = tested on: UACC-62 melanoma
# HOP-92 NSCLC = tested on: HOP-92 NSCLC
# HS 578T breast = tested on: HS 578T breast
# HT29 colon = tested on: HT29 colon
# U251 CNS = tested on: U251 CNS
# A498 renal = tested on: A498 renal
# SN12C renal = tested on: SN12C renal
# SK-OV-3 ovarian = tested on: SK-OV-3 ovarian
# NCI/ADR-RES ovarian = tested on: NCI/ADR-RES ovarian
# NCI-H522 lung = tested on: NCI-H522 lung
# SF-268 CNS = tested on: SF-268 CNS
# NCI-H23 lung = tested on: NCI-H23 lung
# MOLT-4 leukemia = tested on: MOLT-4 leukemia
# MCF7 breast = tested on: MCF7 breast
# HCT-116 colon = tested on: HCT-116 colon
# OVCAR-3 ovarian = tested on: OVCAR-3 ovarian
# COLO 205 colon = tested on: COLO 205 colon
# RPMI-8226 leukemia = tested on: RPMI-8226 leukemia
# SK-MEL-2 melanoma = tested on: SK-MEL-2 melanoma
# NCI-H460 lung = tested on: NCI-H460 lung
compound,measurement,setting,value
Cc1ccc2c(O)c(O)cc(NC(C)CCCN)c2n1 (centres undefined),GI50,SNB-75 CNS,24.6 µM
same,TGI,SNB-75 CNS,> 62.7 µM
same,GI50,SK-MEL-5 melanoma,9.38 µM
same,TGI,SK-MEL-5 melanoma,25.3 µM
same,GI50,RXF 393 renal,> 69.1 µM
same,TGI,RXF 393 renal,> 100 µM
same,GI50,T-47D breast,6.57 µM
same,TGI,T-47D breast,38.3 µM
same,GI50,TK-10 renal,> 100 µM
same,TGI,TK-10 renal,> 100 µM
same,GI50,SW-620 colon,10.2 µM
same,TGI,SW-620 colon,51.3 µM
same,GI50,IGROV1 ovarian,14.2 µM
same,TGI,IGROV1 ovarian,47.7 µM
same,GI50,OVCAR-4 ovarian,2.88 µM
same,TGI,OVCAR-4 ovarian,9.88 µM
same,GI50,OVCAR-8 ovarian,4.35 µM
same,TGI,OVCAR-8 ovarian,> 100 µM
same,GI50,BT-549 breast,32.1 µM
same,TGI,BT-549 breast,> 68.6 µM
same,GI50,SF-539 CNS,3.83 µM
same,TGI,SF-539 CNS,17.2 µM
same,GI50,786-0 renal,> 100 µM
same,TGI,786-0 renal,> 100 µM
same,GI50,M14 melanoma,33.6 µM
same,TGI,M14 melanoma,> 88.1 µM
same,GI50,CCRF-CEM leukemia,3.73 µM
same,TGI,CCRF-CEM leukemia,16.8 µM
same,GI50,SK-MEL-28 melanoma,27.3 µM
same,TGI,SK-MEL-28 melanoma,55.3 µM
same,GI50,CAKI-1 renal,21.8 µM
same,TGI,CAKI-1 renal,> 54.7 µM
same,GI50,MDA-MB-231 breast,7.22 µM
same,TGI,MDA-MB-231 breast,74 µM
same,GI50,HCC-2998 colon,9.11 µM
same,TGI,HCC-2998 colon,> 51.5 µM
same,GI50,A549 NSCLC,24.3 µM
same,TGI,A549 NSCLC,> 100 µM
same,GI50,UACC-257 melanoma,19.8 µM
same,TGI,UACC-257 melanoma,54.5 µM
same,GI50,HOP-62 NSCLC,28.1 µM
same,TGI,HOP-62 NSCLC,> 100 µM
same,GI50,MALME-3M melanoma,18.7 µM
same,TGI,MALME-3M melanoma,41.6 µM
same,GI50,KM12 colon,25 µM
same,TGI,KM12 colon,98.9 µM
same,GI50,HL-60(TB) leukemia,10.7 µM
same,TGI,HL-60(TB) leukemia,37.8 µM
same,GI50,SF-295 CNS,> 48 µM
same,TGI,SF-295 CNS,> 74.2 µM
same,GI50,PC-3 prostate,22.9 µM
same,TGI,PC-3 prostate,> 66.5 µM
same,GI50,MDA-MB-435,19.4 µM
same,TGI,MDA-MB-435,38.3 µM
same,GI50,NCI-H226 lung,44.9 µM
same,TGI,NCI-H226 lung,> 100 µM
same,GI50,OVCAR-5 ovarian,7.36 µM
same,TGI,OVCAR-5 ovarian,25.2 µM
same,GI50,DU-145 prostate,10.5 µM
same,TGI,DU-145 prostate,31.4 µM
same,GI50,SR leukemia,30.5 µM
same,TGI,SR leukemia,79.3 µM
same,GI50,ACHN renal,> 100 µM
same,TGI,ACHN renal,> 100 µM
same,GI50,K-562 leukemia,12.3 µM
same,TGI,K-562 leukemia,60.4 µM
same,GI50,EKVX NSCLC,25.3 µM
same,TGI,EKVX NSCLC,> 83.1 µM
same,GI50,HCT-15 colon,> 79.1 µM
same,TGI,HCT-15 colon,> 100 µM
same,GI50,LOX IMVI melanoma,4.55 µM
same,TGI,LOX IMVI melanoma,25.4 µM
same,GI50,UO-31 renal,7.77 µM
same,TGI,UO-31 renal,43 µM
same,GI50,UACC-62 melanoma,27.3 µM
same,TGI,UACC-62 melanoma,> 66.8 µM
same,GI50,HOP-92 NSCLC,57.5 µM
same,TGI,HOP-92 NSCLC,> 100 µM
same,GI50,HS 578T breast,13.9 µM
same,TGI,HS 578T breast,49.4 µM
same,GI50,HT29 colon,7.04 µM
same,TGI,HT29 colon,> 72.4 µM
same,GI50,U251 CNS,3.67 µM
same,TGI,U251 CNS,14.8 µM
same,GI50,A498 renal,> 100 µM
same,TGI,A498 renal,> 100 µM
same,GI50,SN12C renal,3.89 µM
same,TGI,SN12C renal,24.8 µM
same,GI50,SK-OV-3 ovarian,> 78.6 µM
same,TGI,SK-OV-3 ovarian,> 100 µM
same,GI50,NCI/ADR-RES ovarian,> 66.9 µM
same,TGI,NCI/ADR-RES ovarian,> 100 µM
same,GI50,NCI-H522 lung,3.15 µM
same,TGI,NCI-H522 lung,9.87 µM
same,GI50,SF-268 CNS,16.7 µM
same,TGI,SF-268 CNS,66.2 µM
same,GI50,NCI-H23 lung,3.3 µM
same,TGI,NCI-H23 lung,19.3 µM
same,GI50,MOLT-4 leukemia,2.6 µM
same,TGI,MOLT-4 leukemia,8.99 µM
same,GI50,MCF7 breast,2.65 µM
same,TGI,MCF7 breast,9.82 µM
same,GI50,HCT-116 colon,3.06 µM
same,TGI,HCT-116 colon,> 40 µM
same,GI50,OVCAR-3 ovarian,2.12 µM
same,TGI,OVCAR-3 ovarian,5.26 µM
same,GI50,COLO 205 colon,3.39 µM
same,TGI,COLO 205 colon,42.5 µM
same,GI50,RPMI-8226 leukemia,8.89 µM
same,TGI,RPMI-8226 leukemia,> 53.2 µM
same,GI50,SK-MEL-2 melanoma,> 45.9 µM
same,TGI,SK-MEL-2 melanoma,> 91.9 µM
same,GI50,NCI-H460 lung,36.4 µM
same,TGI,NCI-H460 lung,> 100 µM

# From PubChem BioAssay (NCI)
